Data set [1] concerns A2780 ovarian cancer xenografts. The data set can be described thus: A2780 ovarian cancer xenograft tumor growth. It is filed as in vivo, human tumor in female athymic nude mice. The settings on record: for Tumor progression, Size Increase (x-Fold Day-0): vehicle group endpoint, n = 5 mice/group. From the text: Animals were obtained from Charles River Laboratories, Inc. and allowed to acclimate for 5 days before experiments. Female CD-1 nude mice (Crl:CD1-Foxn1^nu, 4–6 weeks old; ES-2) or athymic nude mice (Crl:NU(NCr)-Foxn1^nu, 4–6 weeks old; SKOV3, A2780, AN3-CA) were used for the xenograft tumor models. Mice were maintained in a pathogen-free environment and handled in accordance with the Guidelines of the Canadian Council on Animal Care. Animal protocols were approved by the Institutional Animal Care and Use Committee of Université du Québec à Montréal (0620-C1R1-897-0621).
Tumor xenografts were established by subcutaneous inoculation of 5 × 10^6 cells (ES-2) or 7 × 10^6 cells (SKOV3) in 150 µL of HBSS; other xenografts were established by subcutaneous inoculation of 5 × 10^6 cells (A2780) or 2 × 10^6 cells (AN3-CA) in 150 µL of HBSS/Matrigel (50:50). All cells were injected into the right flanks of immunodeficient mice under light isoflurane anesthesia. The injection schedules and doses of injected substances are detailed in the figures. Briefly, when palpable ES-2, SKOV3 or AN3-CA tumors reached a volume of ~100 mm^3, mice were treated weekly with either vehicle, docetaxel (3.75 or 15 mg/kg) or TH1902 (8.75 or 35 mg/kg) at equivalent docetaxel amounts via intravenous (IV) tail vein injection. Note that three cycles of 15 mg/kg docetaxel is the maximum tolerated dose in mice and that 35 mg/kg TH1902 contains the same quantity of docetaxel (bis-linked to the peptide). In A2780 xenografts, when palpable tumors reached a volume of ~250 mm^3, mice were treated with either vehicle, paclitaxel (10 mg/kg, IV), carboplatin (40 mg/kg, intraperitoneal (IP)), docetaxel (10 mg/kg, IV) or TH1902 (23 mg/kg, IV) bi-weekly as single agents or once on Day-0 as combinations with carboplatin. For combination treatments, both taxanes and TH1902 were injected 1 h following carboplatin administrations at the doses previously described. Injectable solutions were prepared as follows: TH1902 was solubilized at 10 mg/mL in 10% Tween-80 in D5W (pH 4.3, w/v) then further diluted with D5W; docetaxel was solubilized at 25 mg/mL in ethanol and Tween-80 (50/50, v/v) then further diluted with D5W; paclitaxel was solubilized at 25 mg/mL in ethanol and Cremophor EL (50/50, v/v) then further diluted in saline; carboplatin was solubilized at 50 mg/mL in water then further diluted in a solution of 30% PEG400 and 5% Tween-80 in D5W (w/v); vehicle composition and preparation mimicked highest dose of TH1902 preparation. Tumor growth was monitored by two-dimensional measurements taken with an electronic caliper and tumor volume was calculated according to the following formula: tumor volume (mm^3) = π/6 × length × width^2. Data are expressed as mean ± SEM and were analyzed using GraphPad Prism software.
Figure 8 Effects of TH1902 and carboplatin combinations on A2780 ovarian cancer xenografts. A2780 cells were subcutaneously implanted in the flanks of athymic nude mice. Tumor volume measurements following bi-weekly administrations of (A) vehicle, docetaxel, TH1902, paclitaxel or carboplatin as single agents, or (B) administered once in combination using the same dosage as described in the methods section. Colored dots below indicate drug treatments for all groups. Data are represented as mean ± SEM (n = 5 mice/group).
Background: Xenograft models place foreign cells or tissue in a host animal.

The conditions of data set [2]: ref [38]; cited from earlier work. From the text: Taxanes, mainly paclitaxel and docetaxel, are well-known microtubule stabilizers used in various cancer including ovarian and endometrial cancer first-line therapies in the last thirty years. […] Here, the new chemical entity TH1902 is distinct from the docetaxel molecule as it selectively exploits SORT1’s internalization properties to trigger cell apoptosis in ES-2 and ...

Setting [3] is: single agent 40 mg/kg IP bi-weekly.
The mark [4] stands for this setting: single agent 10 mg/kg IV bi-weekly.

Molecules are shown by their SMILES.

For the compound `N.N.O=C([O-])C1(C(=O)[O-])CCC1.[Pt+2]` [Carboplatin, carboplatin], in data set [1] (setting [3]), the Tumor growth inhibition was 38% and the “Tumor progression, Size Increase (x-Fold Day-0)” value is on record as 4.21 x-Fold Day-0.

On to `CC(=O)O[C@H]1C(=O)[C@@]2(C)[C@H]([C@H](OC(=O)c3ccccc3)[C@]3(O)C[C@H](OC(=O)[C@H](O)[C@@H](NC(=O)c4ccccc4)c4ccccc4)C(C)=C1C3(C)C)[C@]1(OC(C)=O)CO[C@@H]1C[C@@H]2O` [Paclitaxel, paclitaxel], for which the Water solubility result in data set [2] is listed as “very poor water solubility”. Besides, in data set [1] (setting [4]), the Tumor growth inhibition is recorded as 36% and the “Tumor progression, Size Increase (x-Fold Day-0)” value turned out to be 4.21 x-Fold Day-0.

These data come from publication PMC9031804, “The Peptide-Drug Conjugate TH1902: A New Sortilin Receptor-Mediated Cancer Therapeutic against Ovarian and Endometrial Cancers” (Cancers, 2022).
